Patent US20230212122A1, “MITOCHONDRIAL TARGETING COMPOUNDS FOR THE TREATMENT OF ASSOCIATED DISEASES” (The Regents of the University of Michigan, priority 2020, published 2023)

Test system: UM16 cell line
Assay: GSEA of proteomics data ([…], KEGG pathways)
Type: cell-based
Settings: for ES / NES: 5 μM, 24 hours
Source text: Several proteins participating in energy metabolism were dramatically changed.

[1] = HALLMARK_ADIPOGENESIS, FDR q-val 0.644
[2] = HALLMARK_ALLOGRAFT_REJECTION, FDR q-val 0.521
[3] = HALLMARK_ANDROGEN_RESPONSE, FDR q-val 0.915
[4] = HALLMARK_APOPTOSIS, FDR q-val 0.666
[5] = HALLMARK_BILE_ACID_METABOLISM, FDR q-val 0.245
[6] = HALLMARK_CHOLESTEROL_HOMEOSTASIS, FDR q-val 0.314
[7] = HALLMARK_COAGULATION, FDR q-val 0.004
[8] = HALLMARK_COMPLEMENT, FDR q-val 0.425
[9] = HALLMARK_DNA_REPAIR, FDR q-val 0.454
[10] = HALLMARK_E2F_TARGETS, FDR q-val 0.077
[11] = HALLMARK_EPITHELIAL_MESENCHYMAL_TRANSITION, FDR q-val 0.456
[12] = HALLMARK_G2M_CHECKPOINT, FDR q-val 0.107
[13] = HALLMARK_GLYCOLYSIS, FDR q-val 0.489
[14] = HALLMARK_HEME_METABOLISM, FDR q-val 0.552
[15] = HALLMARK_HYPOXIA, FDR q-val 0.003
[16] = HALLMARK_IL2_STAT5_SIGNALING, FDR q-val 0.552
[17] = HALLMARK_MITOTIC_SPINDLE, FDR q-val 0.529
[18] = HALLMARK_MYC_TARGETS_V1, FDR q-val 0.006
[19] = HALLMARK_MYC_TARGETS_V2, FDR q-val 0.264
[20] = HALLMARK_MYOGENESIS, FDR q-val 0.467
[21] = HALLMARK_OXIDATIVE_PHOSPHORYLATION, FDR q-val 0.711
[22] = HALLMARK_P53_PATHWAY, FDR q-val 0.146
[23] = HALLMARK_PEROXISOME, FDR q-val 0.645
[24] = HALLMARK_PROTEIN_SECRETION, FDR q-val 0.862
[25] = HALLMARK_SPERMATOGENESIS, FDR q-val 0.851
[26] = HALLMARK_TGF_BETA_SIGNALING, FDR q-val 0.771
[27] = HALLMARK_TNFA_SIGNALING_VIA_NFKB, FDR q-val 0.457
[28] = HALLMARK_UNFOLDED_PROTEIN_RESPONSE, FDR q-val 0.070
[29] = HALLMARK_UV_RESPONSE_DN, FDR q-val 0.510
[30] = HALLMARK_XENOBIOTIC_METABOLISM, FDR q-val 0.488
[31] = KEGG_ADIPOCYTOKINE_SIGNALING_PATHWAY, FDR q-val 0.903
[32] = KEGG_ARGININE_AND_PROLINE_METABOLISM, FDR q-val 0.668
[33] = KEGG_B_CELL_RECEPTOR_SIGNALING_PATHWAY, FDR q-val 0.813
[34] = KEGG_CARDIAC_MUSCLE_CONTRACTION, FDR q-val 0.900
[35] = KEGG_CYTOSOLIC_DNA_SENSING_PATHWAY, FDR q-val 0.907
[36] = KEGG_FC_EPSILON_RI_SIGNALING_PATHWAY, FDR q-val 0.825
[37] = KEGG_GAP_JUNCTION, FDR q-val 0.898
[38] = KEGG_GLYCEROLIPID_METABOLISM, FDR q-val 0.663
[39] = KEGG_GLYCOLYSIS_GLUCONEOGENESIS, FDR q-val 0.889
[40] = KEGG_INOSITOL_PHOSPHATE_METABOLISM, FDR q-val 0.852
[41] = KEGG_INSULIN_SIGNALING_PATHWAY, FDR q-val 0.872
[42] = KEGG_LYSINE_DEGRADATION, FDR q-val 0.914
[43] = KEGG_MELANOGENESIS, FDR q-val 0.638
[44] = KEGG_NON_SMALL_CELL_LUNG_CANCER, FDR q-val 0.894
[45] = KEGG_NUCLEOTIDE_EXCISION_REPAIR, FDR q-val 0.829
[46] = KEGG_PATHWAYS_IN_CANCER, FDR q-val 0.858
[47] = KEGG_PEROXISOME, FDR q-val 0.839
[48] = KEGG_PROP_ANOATE_METABOLISM, FDR q-val 0.889
[49] = KEGG_PURINE_METABOLISM, FDR q-val 0.909
[50] = KEGG_VIRAL_MYOCARDITIS, FDR q-val 0.832

## CCOC(=O)[C@@H]1CCCN(S(=O)(=O)c2ccc(S(=O)(=O)N(CC)CC)cc2)C1 [DX2-201, ethyl (R)-1-((4-(N,N-diethylsulfamoyl)phenyl)sulfonyl)piperidine-3-carboxylate]
  TCA cycle (proteomic results): suppressed
  hypoxia pathways, bile acid metabolism, cholesterol homoeostasis and glycolysis (proteomic results): upregulated
[1]
  ES: 0.317
  NES: 1.025
[2]
  ES: −0.287
  NES: −1.082
[3]
  ES: 0.259
  NES: 0.760
[4]
  ES: 0.335
  NES: 1.042
[5]
  ES: 0.523
  NES: 1.465
[6]
  ES: 0.493
  NES: 1.407
[7]
  ES: 0.636
  NES: 1.813
[8]
  ES: 0.401
  NES: 1.235
[9]
  ES: 0.381
  NES: 1.239
[10]
  ES: −0.349
  NES: −1.559
[11]
  ES: 0.449
  NES: 1.312
HALLMARK_ESTROGEN_RESPONSE_EARLY, FDR q-val 0.813
  NES: 0.929
[12]
  ES: −0.313
  NES: −1.421
[13]
  ES: 0.399
  NES: 1.281
[14]
  ES: 0.376
  NES: 1.150
[15]
  ES: 0.595
  NES: 1.851
[16]
  ES: 0.384
  NES: 1.176
[17]
  ES: 0.348
  NES: 1.170
[18]
  ES: −0.424
  NES: −1.975
[19]
  ES: −0.329
  NES: −1.215
[20]
  ES: −0.285
  NES: −1.077
[21]
  ES: −0.214
  NES: −0.938
[22]
  ES: −0.323
  NES: −1.338
[23]
  ES: 0.347
  NES: 1.037
[24]
  ES: −0.207
  NES: −0.842
[25]
  ES: −0.229
  NES: −0.803
[26]
  ES: −0.296
  NES: −0.944
[27]
  ES: 0.448
  NES: 1.335
[28]
  ES: −0.372
  NES: −1.517
[29]
  ES: 0.433
  NES: 1.256
[30]
  ES: 0.393
  NES: 1.244
[31]
  ES: 0.390
  NES: 1.046
KEGG_ANTIGEN_PROCESSING_AND_PRESENTATION, FDR q-val 0.792
  NES: −0.917
[32]
  ES: 0.543
  NES: 1.389
KEGG_BASAL_TRANSCRIPTION_FACTORS, FDR q-val 0.687
  NES: −1.121
[33]
  ES: 0.504
  NES: 1.432
[34]
  ES: 0.469
  NES: 1.177
KEGG_CELL_CYCLE, FDR q-val 0.828
  NES: −0.995
KEGG_CITRATE_CYCLE_TCA_CYCLE, FDR q-val 0.422
  NES: −1.416
[35]
  ES: 0.469
  NES: 1.166
KEGG_DNA_REPLICATION, FDR q-val 0.844
  NES: −0.919
KEGG_ERBB_SIGNALING_PATHWAY, FDR q-val 0.821
  NES: 1.410
[36]
  ES: 0.593
  NES: 1.623
[37]
  ES: 0.386
  NES: 1.041
[38]
  ES: 0.572
  NES: 1.376
[39]
  ES: 0.394
  NES: 1.086
[40]
  ES: 0.520
  NES: 1.277
[41]
  ES: 0.352
  NES: 1.077
[42]
  ES: 0.381
  NES: 1.007
[43]
  ES: 0.534
  NES: 1.369
[44]
  ES: 0.415
  NES: 1.092
[45]
  ES: 0.469
  NES: 1.271
KEGG_N_GLYCAN_BIOSYNTHESIS, FDR q-val 0.658
  NES: −1.160
KEGG_PARKINSONS_DISEASE, FDR q-val 0.702
  NES: −1.180
[46]
  ES: 0.324
  NES: 1.074
[47]
  ES: 0.459
  NES: 1.302
[48]
  ES: 0.424
  NES: 1.079
KEGG_PROTEASOME, FDR q-val 0.605
  NES: −1.425
KEGG_PROTEIN_EXPORT, FDR q-val 0.625
  NES: −1.116
[49]
  ES: 0.331
  NES: 1.023
KEGG_RIBOSOME, FDR q-val 0.003
  NES: −2.132
KEGG_RNA_DEGRADATION, FDR q-val 0.672
  NES: −1.228
KEGG_SPLICEOSOME, FDR q-val 0.541
  NES: −1.319
KEGG_VIBRIO_CHOLERAE_INFECTION, FDR q-val 0.754
  NES: −1.044
[50]
  ES: 0.497
  NES: 1.292
